According to patent US10168342B2, “Lipid probes and uses thereof” (THE SCRIPPS RESEARCH INSTITUTE, priority 2015, dated 2019):
Read-outs that look alike come from different tables or passages of the source.

Key:
[1] = biological target: AEA-DA lipid probe targets in Neuro2a cells (Mus musculus, UniProt O35129)
[2] = biological target: AEA-DA lipid probe targets in Neuro2a cells (Mus musculus, UniProt Q8VDN2)
[3] = biological target: T1, AEA-DA lipid probe targets in Neuro2a cells (Mus musculus, UniProt Q80WJ7)
T1 sequence (Q80WJ7 1-579): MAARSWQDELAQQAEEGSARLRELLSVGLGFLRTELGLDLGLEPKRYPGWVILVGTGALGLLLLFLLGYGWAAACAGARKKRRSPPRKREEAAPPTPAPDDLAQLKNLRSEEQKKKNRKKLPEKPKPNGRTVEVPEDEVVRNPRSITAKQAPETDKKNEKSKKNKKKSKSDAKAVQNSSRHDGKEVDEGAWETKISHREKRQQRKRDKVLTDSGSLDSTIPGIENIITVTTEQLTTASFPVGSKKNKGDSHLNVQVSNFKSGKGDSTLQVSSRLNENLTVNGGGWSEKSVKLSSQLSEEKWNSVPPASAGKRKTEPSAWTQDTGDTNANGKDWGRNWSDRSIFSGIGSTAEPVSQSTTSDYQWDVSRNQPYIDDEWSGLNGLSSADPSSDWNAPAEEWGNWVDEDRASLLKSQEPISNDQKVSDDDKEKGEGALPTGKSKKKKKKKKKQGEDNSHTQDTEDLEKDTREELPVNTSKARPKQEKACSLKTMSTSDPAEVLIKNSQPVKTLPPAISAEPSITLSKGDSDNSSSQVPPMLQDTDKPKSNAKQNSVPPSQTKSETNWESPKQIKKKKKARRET

[4] = biological target: AEA-DA lipid probe targets in Neuro2a cells (Mus musculus, UniProt Q9R1P3)
Chain of AEA-DA lipid probe targets in Neuro2a cells (Mus musculus, UniProt Q9R1P3) (Q9R1P3 whole entry): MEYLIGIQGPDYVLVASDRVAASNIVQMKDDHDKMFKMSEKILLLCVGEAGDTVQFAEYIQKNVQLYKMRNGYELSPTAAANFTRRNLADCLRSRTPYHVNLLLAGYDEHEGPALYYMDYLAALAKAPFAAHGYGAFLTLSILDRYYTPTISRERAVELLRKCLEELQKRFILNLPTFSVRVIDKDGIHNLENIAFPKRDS

[5] = biological target: T2, AEA-DA lipid probe targets in Neuro2a cells (Mus musculus, UniProt Q91V01); settings: for SILAC ratio, LPCAT3 (Q6P1A2): Neuro2a cells, AEA-DA probe
T2 sequence (Q91V01 1-487): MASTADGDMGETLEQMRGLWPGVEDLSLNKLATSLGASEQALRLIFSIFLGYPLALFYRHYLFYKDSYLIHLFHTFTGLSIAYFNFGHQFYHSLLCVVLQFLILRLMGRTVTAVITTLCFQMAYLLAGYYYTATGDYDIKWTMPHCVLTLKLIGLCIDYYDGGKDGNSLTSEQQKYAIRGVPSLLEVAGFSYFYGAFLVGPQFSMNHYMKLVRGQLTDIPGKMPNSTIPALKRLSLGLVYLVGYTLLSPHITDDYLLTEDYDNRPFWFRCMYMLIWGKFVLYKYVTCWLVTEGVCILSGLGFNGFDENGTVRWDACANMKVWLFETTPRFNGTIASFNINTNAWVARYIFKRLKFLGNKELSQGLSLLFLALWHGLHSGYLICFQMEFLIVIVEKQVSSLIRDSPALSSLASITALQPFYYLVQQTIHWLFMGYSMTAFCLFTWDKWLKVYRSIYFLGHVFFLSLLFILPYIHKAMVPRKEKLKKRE

[6] = biological target: AEA-DA lipid probe targets in Neuro2a cells (Mus musculus, UniProt P60229)
Chain of AEA-DA lipid probe targets in Neuro2a cells (Mus musculus, UniProt P60229) (P60229 whole entry): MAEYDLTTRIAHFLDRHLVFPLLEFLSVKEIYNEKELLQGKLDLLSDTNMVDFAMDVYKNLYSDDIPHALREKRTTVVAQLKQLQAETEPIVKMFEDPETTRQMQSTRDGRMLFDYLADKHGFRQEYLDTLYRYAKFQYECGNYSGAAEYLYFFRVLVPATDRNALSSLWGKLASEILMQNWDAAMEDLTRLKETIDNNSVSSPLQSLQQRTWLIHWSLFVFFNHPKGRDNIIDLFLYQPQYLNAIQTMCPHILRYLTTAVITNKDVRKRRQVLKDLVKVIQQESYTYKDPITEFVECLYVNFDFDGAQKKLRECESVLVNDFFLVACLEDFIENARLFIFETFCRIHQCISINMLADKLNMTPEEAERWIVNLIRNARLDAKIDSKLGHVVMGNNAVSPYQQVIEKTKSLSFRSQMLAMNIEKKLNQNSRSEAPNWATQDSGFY

[7] = biological target: T3, AEA-DA lipid probe targets in Neuro2a cells (Mus musculus, UniProt P15626)
T3 sequence (P15626 1-218): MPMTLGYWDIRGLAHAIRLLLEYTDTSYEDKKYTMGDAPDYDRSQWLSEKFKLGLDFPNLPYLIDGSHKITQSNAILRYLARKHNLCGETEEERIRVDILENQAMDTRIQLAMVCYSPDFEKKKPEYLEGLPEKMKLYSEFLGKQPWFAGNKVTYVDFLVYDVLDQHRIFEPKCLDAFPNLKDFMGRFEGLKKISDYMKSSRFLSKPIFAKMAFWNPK

[8] = biological target: AEA-DA lipid probe targets in Neuro2a cells (Mus musculus, UniProt Q9EPE9)
Chain of AEA-DA lipid probe targets in Neuro2a cells (Mus musculus, UniProt Q9EPE9) (Q9EPE9 whole entry): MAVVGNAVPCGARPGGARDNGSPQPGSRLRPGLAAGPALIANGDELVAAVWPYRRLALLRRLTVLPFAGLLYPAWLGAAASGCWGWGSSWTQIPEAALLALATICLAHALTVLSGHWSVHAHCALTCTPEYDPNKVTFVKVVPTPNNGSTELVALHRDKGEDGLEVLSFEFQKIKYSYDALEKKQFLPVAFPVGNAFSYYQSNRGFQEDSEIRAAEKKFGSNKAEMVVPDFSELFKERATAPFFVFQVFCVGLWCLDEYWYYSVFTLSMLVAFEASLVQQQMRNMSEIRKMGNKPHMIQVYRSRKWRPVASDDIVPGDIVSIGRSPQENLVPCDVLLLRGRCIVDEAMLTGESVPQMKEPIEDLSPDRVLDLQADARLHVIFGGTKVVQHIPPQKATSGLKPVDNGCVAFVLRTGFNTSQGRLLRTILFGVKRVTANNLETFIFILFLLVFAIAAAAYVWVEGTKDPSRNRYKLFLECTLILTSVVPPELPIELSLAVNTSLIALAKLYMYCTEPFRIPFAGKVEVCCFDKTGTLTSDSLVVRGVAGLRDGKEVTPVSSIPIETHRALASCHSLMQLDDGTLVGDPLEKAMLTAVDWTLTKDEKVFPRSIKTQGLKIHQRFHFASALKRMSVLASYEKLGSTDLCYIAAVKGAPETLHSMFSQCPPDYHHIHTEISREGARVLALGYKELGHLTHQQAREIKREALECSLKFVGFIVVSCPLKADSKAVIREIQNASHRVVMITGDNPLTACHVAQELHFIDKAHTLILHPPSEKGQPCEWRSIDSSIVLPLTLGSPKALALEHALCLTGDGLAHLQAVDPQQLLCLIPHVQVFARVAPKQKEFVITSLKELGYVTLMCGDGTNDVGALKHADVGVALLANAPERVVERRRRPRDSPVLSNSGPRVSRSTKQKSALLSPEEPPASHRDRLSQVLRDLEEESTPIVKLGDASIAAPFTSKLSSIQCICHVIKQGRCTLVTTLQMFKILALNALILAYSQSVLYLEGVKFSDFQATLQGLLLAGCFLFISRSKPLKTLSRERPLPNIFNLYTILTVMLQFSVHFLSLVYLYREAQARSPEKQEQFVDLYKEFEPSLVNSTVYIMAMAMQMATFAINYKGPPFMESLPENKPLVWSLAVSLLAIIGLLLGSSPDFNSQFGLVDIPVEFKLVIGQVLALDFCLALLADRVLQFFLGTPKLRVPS

[9] = biological target: T4, AEA-DA lipid probe targets in Neuro2a cells (Mus musculus, UniProt Q9QY93)
T4 sequence (Q9QY93 1-170): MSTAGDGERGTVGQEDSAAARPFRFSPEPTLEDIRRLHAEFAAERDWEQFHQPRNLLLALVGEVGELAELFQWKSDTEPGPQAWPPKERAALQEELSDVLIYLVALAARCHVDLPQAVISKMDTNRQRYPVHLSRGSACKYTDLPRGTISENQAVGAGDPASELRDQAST

[10] = biological target: T5, AEA-DA lipid probe targets in Neuro2a cells (Mus musculus, UniProt P10649)
T5 sequence (P10649 1-218): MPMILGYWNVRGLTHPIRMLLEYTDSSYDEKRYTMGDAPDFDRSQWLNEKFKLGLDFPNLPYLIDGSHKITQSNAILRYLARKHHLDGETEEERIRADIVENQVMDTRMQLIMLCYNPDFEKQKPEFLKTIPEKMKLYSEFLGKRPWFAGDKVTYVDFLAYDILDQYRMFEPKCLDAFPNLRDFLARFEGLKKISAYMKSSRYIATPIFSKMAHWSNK

[11] = biological target: AEA-DA lipid probe targets in Neuro2a cells (Mus musculus, UniProt P15331)
Chain of AEA-DA lipid probe targets in Neuro2a cells (Mus musculus, UniProt P15331) (P15331 whole entry): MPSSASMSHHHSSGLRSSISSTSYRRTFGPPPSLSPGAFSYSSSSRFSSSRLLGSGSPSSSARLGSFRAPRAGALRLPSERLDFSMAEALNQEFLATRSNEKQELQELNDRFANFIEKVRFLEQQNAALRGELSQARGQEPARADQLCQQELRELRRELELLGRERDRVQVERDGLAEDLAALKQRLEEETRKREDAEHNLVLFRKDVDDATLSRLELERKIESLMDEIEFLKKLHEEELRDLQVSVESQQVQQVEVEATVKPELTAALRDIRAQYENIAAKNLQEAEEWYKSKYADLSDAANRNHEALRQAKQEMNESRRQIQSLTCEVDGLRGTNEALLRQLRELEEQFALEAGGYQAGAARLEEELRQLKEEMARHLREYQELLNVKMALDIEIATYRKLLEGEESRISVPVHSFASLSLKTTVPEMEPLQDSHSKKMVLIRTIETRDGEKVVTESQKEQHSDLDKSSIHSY

[12] = biological target: T6, AEA-DA lipid probe targets in Neuro2a cells (Mus musculus, UniProt Q3KNM2); settings: for SILAC ratio, MARCH5 (Q3KNM2): Neuro2a cells, AEA-DA probe
T6 sequence (Q3KNM2 1-278): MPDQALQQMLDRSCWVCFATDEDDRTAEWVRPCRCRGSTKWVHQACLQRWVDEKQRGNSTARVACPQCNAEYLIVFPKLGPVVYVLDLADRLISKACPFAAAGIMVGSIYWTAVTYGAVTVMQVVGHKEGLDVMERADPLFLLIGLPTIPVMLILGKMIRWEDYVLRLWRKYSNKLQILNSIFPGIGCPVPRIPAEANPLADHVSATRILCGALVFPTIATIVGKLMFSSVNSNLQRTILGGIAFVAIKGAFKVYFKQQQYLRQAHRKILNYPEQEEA

Chain of AEA-DA lipid probe targets in Neuro2a cells (Mus musculus, UniProt O35129) (O35129 whole entry): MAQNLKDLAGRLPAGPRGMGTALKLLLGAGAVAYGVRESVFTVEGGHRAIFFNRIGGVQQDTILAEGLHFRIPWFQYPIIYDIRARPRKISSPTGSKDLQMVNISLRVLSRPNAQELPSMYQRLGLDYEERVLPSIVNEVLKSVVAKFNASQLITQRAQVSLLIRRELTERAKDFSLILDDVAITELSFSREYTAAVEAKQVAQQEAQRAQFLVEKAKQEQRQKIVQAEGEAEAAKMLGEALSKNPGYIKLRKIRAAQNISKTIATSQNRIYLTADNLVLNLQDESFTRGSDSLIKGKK

## CCCCC/C=C\C/C=C\C/C=C\C/C=C\CCCC(=O)NCCO [AEA, anandamide, reference compound]
[1]; competitor 200 μM
  SILAC ratio Phb2: 1.2
[2]; competitor 200 μM
  SILAC ratio Atp1a1: 1.4
[3]; competitor 200 μM
  SILAC ratio Mtdh: 1.7
[4]; competitor 200 μM
  SILAC ratio Psmb2: 1.3
[5]; competitor 200 μM
  SILAC ratio, LPCAT3 (Q6P1A2): 1.4
  SILAC ratio, Lpcat3: 1.4
[6]; competitor 200 μM
  SILAC ratio Eif3e: 1.2
[7]; competitor 200 μM
  SILAC ratio, Gstm2: 2.7
[8]; competitor 200 μM
  SILAC ratio Atp13a1: 1.4
[9]; competitor 200 μM
  SILAC ratio Dctpp1: 1.5
[10]; competitor 200 μM
  SILAC ratio, Gstm1: 2.3
[11]; competitor 200 μM
  SILAC ratio Prph: 1.0

## O=C(/C=C/c1cccnc1)NCCCCC1CCN(C(=O)c2ccccc2)CC1 [FK-866, reference compound]
[12]; competitor 25 μM
  SILAC ratio, MARCH5 (Q3KNM2): 1.3
  SILAC ratio, March5: 1.3
[1]; competitor 25 μM
  SILAC ratio Phb2: 1.1
[2]; competitor 25 μM
  SILAC ratio Atp1a1: 1.2
[3]; competitor 25 μM
  SILAC ratio Mtdh: 1.2
[4]; competitor 25 μM
  SILAC ratio Psmb2: 1.7
[5]; competitor 25 μM
  SILAC ratio, LPCAT3 (Q6P1A2): 2.3
  SILAC ratio, Lpcat3: 2.3
[6]; competitor 25 μM
  SILAC ratio Eif3e: 1.1
[7]; competitor 25 μM
  SILAC ratio, Gstm2: 1.5
[8]; competitor 25 μM
  SILAC ratio Atp13a1: 1.1
[9]; competitor 25 μM
  SILAC ratio Dctpp1: 1.4
[10]; competitor 25 μM
  SILAC ratio, Gstm1: 1.5
[11]; competitor 25 μM
  SILAC ratio Prph: 1.2

## CN1CCN(C(=O)c2c(-c3ccccc3)c3cc([N+](=O)[O-])ccc3n2C)CC1 [KML110, (1-Methyl-5-nitro-3-phenyl-1H-indol-2-yl)(4-methylpiperazin-1-yl)methanone]
[12]; competitor 25 μM
  SILAC ratio, March5: 1.5
[1]; competitor 25 μM
  SILAC ratio Phb2: 1.3
[2]; competitor 25 μM
  SILAC ratio Atp1a1: 1.2
[3]; competitor 25 μM
  SILAC ratio Mtdh: 1.5
[4]; competitor 25 μM
  SILAC ratio Psmb2: 1.7
[5]; competitor 25 μM
  SILAC ratio, Lpcat3: 1.3
[6]; competitor 25 μM
  SILAC ratio Eif3e: 1.4
[8]; competitor 25 μM
  SILAC ratio Atp13a1: 1.7
[9]; competitor 25 μM
  SILAC ratio Dctpp1: 1.6
[10]; competitor 25 μM
  SILAC ratio, Gstm1: 2.2
[11]; competitor 25 μM
  SILAC ratio Prph: 1.1

## CN1CCN(C(=O)c2[nH]c3ccc([N+](=O)[O-])cc3c2-c2ccccc2)CC1 [MJN228, (4-Methylpiperazin-1-yl)(5-nitro-3-phenyl-1H-indol-2-yl)methanone]
[12]; competitor 25 μM
  SILAC ratio, MARCH5 (Q3KNM2): 1.1
  SILAC ratio, March5: 1.1
[12]; competitor 10 μM
  SILAC ratio, March5: 1.1
[12]; competitor 50 μM
  SILAC ratio, March5: 1.0
[12]; competitor 100 μM
  SILAC ratio, March5: 1.1
[1]; competitor 10 μM
  SILAC ratio Phb2: 1.3
[1]; competitor 25 μM
  SILAC ratio Phb2: 1.2
[1]; competitor 50 μM
  SILAC ratio Phb2: 1.4
[1]; competitor 100 μM
  SILAC ratio Phb2: 1.5
[2]; competitor 10 μM
  SILAC ratio Atp1a1: 1.4
[2]; competitor 25 μM
  SILAC ratio Atp1a1: 1.4
[2]; competitor 50 μM
  SILAC ratio Atp1a1: 1.1
[2]; competitor 100 μM
  SILAC ratio Atp1a1: 1.2
[3]; competitor 10 μM
  SILAC ratio Mtdh: 1.3
[3]; competitor 25 μM
  SILAC ratio Mtdh: 1.5
[3]; competitor 50 μM
  SILAC ratio Mtdh: 1.6
[3]; competitor 100 μM
  SILAC ratio Mtdh: 1.9
[4]; competitor 10 μM
  SILAC ratio Psmb2: 1.3
[4]; competitor 25 μM
  SILAC ratio Psmb2: 1.4
[4]; competitor 50 μM
  SILAC ratio Psmb2: 1.2
[4]; competitor 100 μM
  SILAC ratio Psmb2: 2.2
[5]; competitor 10 μM
  SILAC ratio, Lpcat3: 1.2
[5]; competitor 25 μM
  SILAC ratio, Lpcat3: 1.2
[5]; competitor 50 μM
  SILAC ratio, Lpcat3: 1.4
[5]; competitor 100 μM
  SILAC ratio, Lpcat3: 1.5
[6]; competitor 10 μM
  SILAC ratio Eif3e: 1.1
[6]; competitor 25 μM
  SILAC ratio Eif3e: 1.1
[6]; competitor 50 μM
  SILAC ratio Eif3e: 1.0
[6]; competitor 100 μM
  SILAC ratio Eif3e: 1.0
[7]; competitor 10 μM
  SILAC ratio, Gstm2: 1.6
[7]; competitor 25 μM
  SILAC ratio, Gstm2: 1.6
[7]; competitor 100 μM
  SILAC ratio, Gstm2: 2.2
[8]; competitor 10 μM
  SILAC ratio Atp13a1: 1.3
[8]; competitor 25 μM
  SILAC ratio Atp13a1: 1.7
[8]; competitor 50 μM
  SILAC ratio Atp13a1: 2.0
[8]; competitor 100 μM
  SILAC ratio Atp13a1: 2.2
[9]; competitor 25 μM
  SILAC ratio Dctpp1: 1.2
[9]; competitor 50 μM
  SILAC ratio Dctpp1: 1.0
[9]; competitor 100 μM
  SILAC ratio Dctpp1: 1.0
[10]; competitor 10 μM
  SILAC ratio, Gstm1: 1.7
[10]; competitor 25 μM
  SILAC ratio, Gstm1: 1.7
[10]; competitor 50 μM
  SILAC ratio, Gstm1: 2.1
[10]; competitor 100 μM
  SILAC ratio, Gstm1: 2.6
[11]; competitor 10 μM
  SILAC ratio Prph: 1.0
[11]; competitor 25 μM
  SILAC ratio Prph: 1.2
[11]; competitor 50 μM
  SILAC ratio Prph: 0.7
[11]; competitor 100 μM
  SILAC ratio Prph: 0.9

## C=CCN(C)CCCCCCOc1ccc(C(=O)c2ccc(Br)cc2)c(F)c1 [Ro 48-8071, reference compound]
[12]; competitor 25 μM
  SILAC ratio, MARCH5 (Q3KNM2): 1.1
  SILAC ratio, March5: 1.1
[1]; competitor 25 μM
  SILAC ratio Phb2: 0.9
[2]; competitor 25 μM
  SILAC ratio Atp1a1: 1.0
[3]; competitor 25 μM
  SILAC ratio Mtdh: 1.2
[4]; competitor 25 μM
  SILAC ratio Psmb2: 1.0
[5]; competitor 25 μM
  SILAC ratio, LPCAT3 (Q6P1A2): 1.1
  SILAC ratio, Lpcat3: 1.1
[6]; competitor 25 μM
  SILAC ratio Eif3e: 0.8
[7]; competitor 25 μM
  SILAC ratio, Gstm2: 1.3
[8]; competitor 25 μM
  SILAC ratio Atp13a1: 1.2
[9]; competitor 25 μM
  SILAC ratio Dctpp1: 0.8
[10]; competitor 25 μM
  SILAC ratio, Gstm1: 1.4
[11]; competitor 25 μM
  SILAC ratio Prph: 0.8
